According to the kinase profiling compilation of Christmann-Franck et al. (2016):

How the values were obtained:
Assay in all cases: Caliper, Mobility shift assay off-chip
AKT2 (human) = AKT2 (human) (UniProt P31751)
BRSK1 (human) = BRSK1 (human) (UniProt Q8TDC3)
CDK9 (human) = CDK9 (human) (UniProt P50750)
CSNK2A1 (human) = CSNK2A1 (human) (UniProt P68400)
CSNK2A2 (human) = CSNK2A2 (human) (UniProt P19784)
EPHA4 (human) = EPHA4 (human) (UniProt P54764)
EPHB2 (human) = EPHB2 (human) (UniProt P29323)
FLT1 (human) = FLT1 (human) (UniProt P17948)
IKBKB (human) = IKBKB (human) (UniProt O14920)
JAK1 JH1 JH2 (human) = JAK1 JH1 JH2 (human) (UniProt P23458)
LATS2 (human) = LATS2 (human) (UniProt Q9NRM7)
MAP4K2 (human) = MAP4K2 (human) (UniProt Q12851)
MAPK1 (human) = MAPK1 (human) (UniProt P28482)
MAPK11 (human) = MAPK11 (human) (UniProt Q15759)
MAPK8 (human) = MAPK8 (human) (UniProt P45983)
MAPKAPK5 (human) = MAPKAPK5 (human) (UniProt Q8IW41)
MERTK (human) = MERTK (human) (UniProt Q12866)
MST4 (human) = MST4 (human) (UniProt Q9P289)
NIM1 (human) = NIM1 (human) (UniProt Q8IY84)
NTRK2 (human) = NTRK2 (human) (UniProt Q16620)
NUAK2 (human) = NUAK2 (human) (UniProt Q9H093)
PAK3 (human) = PAK3 (human) (UniProt O75914)
PAK4 (human) = PAK4 (human) (UniProt O96013)
PBK (human) = PBK (human) (UniProt Q96KB5)
PHKG2 (human) = PHKG2 (human) (UniProt P15735)
PIM1 (human) = PIM1 (human) (UniProt P11309)
PRKACG (human) = PRKACG (human) (UniProt P22612)
PRKCZ (human) = PRKCZ (human) (UniProt Q05513)
STK24 (human) = STK24 (human) (UniProt Q9Y6E0)
TSSK1B (human) = TSSK1B (human) (UniProt Q9BXA7)
ZAP70 (human) = ZAP70 (human) (UniProt P43403)

Sequence of MAPK11 (human) (Q15759 whole entry, looked up): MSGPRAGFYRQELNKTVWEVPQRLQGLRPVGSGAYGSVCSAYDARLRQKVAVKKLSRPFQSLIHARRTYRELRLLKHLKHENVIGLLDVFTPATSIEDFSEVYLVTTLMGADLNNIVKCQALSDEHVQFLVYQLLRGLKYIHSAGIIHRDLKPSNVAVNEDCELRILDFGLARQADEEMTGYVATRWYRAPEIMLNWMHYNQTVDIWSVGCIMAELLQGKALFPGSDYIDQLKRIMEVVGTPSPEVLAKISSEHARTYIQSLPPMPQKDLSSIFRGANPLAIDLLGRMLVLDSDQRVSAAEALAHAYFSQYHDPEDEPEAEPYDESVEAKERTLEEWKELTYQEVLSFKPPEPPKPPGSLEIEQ
Sequence of MAPK8 (human) (P45983 whole entry, looked up): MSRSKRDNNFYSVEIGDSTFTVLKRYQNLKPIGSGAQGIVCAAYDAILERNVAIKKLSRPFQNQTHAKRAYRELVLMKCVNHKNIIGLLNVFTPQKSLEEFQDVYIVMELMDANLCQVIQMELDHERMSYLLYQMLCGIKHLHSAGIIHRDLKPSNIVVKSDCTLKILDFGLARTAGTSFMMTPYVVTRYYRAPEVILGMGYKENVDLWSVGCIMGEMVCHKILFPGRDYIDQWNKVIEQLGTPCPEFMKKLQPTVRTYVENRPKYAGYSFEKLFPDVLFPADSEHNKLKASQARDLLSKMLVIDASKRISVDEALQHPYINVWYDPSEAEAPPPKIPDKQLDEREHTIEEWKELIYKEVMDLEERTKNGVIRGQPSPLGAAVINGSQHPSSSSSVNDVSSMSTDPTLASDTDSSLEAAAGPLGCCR
Sequence of MST4 (human) (Q9P289 whole entry, looked up): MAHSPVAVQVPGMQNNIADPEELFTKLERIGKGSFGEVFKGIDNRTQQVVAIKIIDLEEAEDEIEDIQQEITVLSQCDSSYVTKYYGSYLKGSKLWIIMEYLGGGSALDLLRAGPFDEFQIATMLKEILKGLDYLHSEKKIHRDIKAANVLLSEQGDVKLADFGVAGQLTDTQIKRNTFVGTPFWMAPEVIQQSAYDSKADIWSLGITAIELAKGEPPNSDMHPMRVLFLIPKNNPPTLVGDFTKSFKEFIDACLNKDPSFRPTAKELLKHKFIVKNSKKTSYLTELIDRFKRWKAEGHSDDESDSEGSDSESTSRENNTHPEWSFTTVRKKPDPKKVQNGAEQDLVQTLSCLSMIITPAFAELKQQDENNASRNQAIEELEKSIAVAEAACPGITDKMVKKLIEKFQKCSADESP
Sequence of IKBKB (human) (O14920 whole entry, looked up): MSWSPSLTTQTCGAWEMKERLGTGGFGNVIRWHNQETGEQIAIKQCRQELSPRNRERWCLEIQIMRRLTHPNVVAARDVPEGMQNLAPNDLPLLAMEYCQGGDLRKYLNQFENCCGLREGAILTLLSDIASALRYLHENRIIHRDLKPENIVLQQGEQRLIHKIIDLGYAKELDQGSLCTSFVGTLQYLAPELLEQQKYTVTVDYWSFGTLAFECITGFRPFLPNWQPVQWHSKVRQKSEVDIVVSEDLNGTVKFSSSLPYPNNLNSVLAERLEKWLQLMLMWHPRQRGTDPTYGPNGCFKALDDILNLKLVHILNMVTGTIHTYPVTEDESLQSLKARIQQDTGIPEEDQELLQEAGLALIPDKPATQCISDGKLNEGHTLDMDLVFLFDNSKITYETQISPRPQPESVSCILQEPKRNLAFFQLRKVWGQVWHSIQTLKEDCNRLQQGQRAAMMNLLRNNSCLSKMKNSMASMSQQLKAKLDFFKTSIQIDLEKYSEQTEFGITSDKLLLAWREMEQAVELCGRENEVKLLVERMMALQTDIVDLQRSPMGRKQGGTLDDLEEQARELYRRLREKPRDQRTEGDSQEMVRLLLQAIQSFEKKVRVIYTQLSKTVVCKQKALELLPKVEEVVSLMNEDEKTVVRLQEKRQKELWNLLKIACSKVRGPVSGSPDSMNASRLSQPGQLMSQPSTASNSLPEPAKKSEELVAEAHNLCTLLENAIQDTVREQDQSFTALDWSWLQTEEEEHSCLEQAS
Sequence of MAP4K2 (human) (Q12851 whole entry, looked up): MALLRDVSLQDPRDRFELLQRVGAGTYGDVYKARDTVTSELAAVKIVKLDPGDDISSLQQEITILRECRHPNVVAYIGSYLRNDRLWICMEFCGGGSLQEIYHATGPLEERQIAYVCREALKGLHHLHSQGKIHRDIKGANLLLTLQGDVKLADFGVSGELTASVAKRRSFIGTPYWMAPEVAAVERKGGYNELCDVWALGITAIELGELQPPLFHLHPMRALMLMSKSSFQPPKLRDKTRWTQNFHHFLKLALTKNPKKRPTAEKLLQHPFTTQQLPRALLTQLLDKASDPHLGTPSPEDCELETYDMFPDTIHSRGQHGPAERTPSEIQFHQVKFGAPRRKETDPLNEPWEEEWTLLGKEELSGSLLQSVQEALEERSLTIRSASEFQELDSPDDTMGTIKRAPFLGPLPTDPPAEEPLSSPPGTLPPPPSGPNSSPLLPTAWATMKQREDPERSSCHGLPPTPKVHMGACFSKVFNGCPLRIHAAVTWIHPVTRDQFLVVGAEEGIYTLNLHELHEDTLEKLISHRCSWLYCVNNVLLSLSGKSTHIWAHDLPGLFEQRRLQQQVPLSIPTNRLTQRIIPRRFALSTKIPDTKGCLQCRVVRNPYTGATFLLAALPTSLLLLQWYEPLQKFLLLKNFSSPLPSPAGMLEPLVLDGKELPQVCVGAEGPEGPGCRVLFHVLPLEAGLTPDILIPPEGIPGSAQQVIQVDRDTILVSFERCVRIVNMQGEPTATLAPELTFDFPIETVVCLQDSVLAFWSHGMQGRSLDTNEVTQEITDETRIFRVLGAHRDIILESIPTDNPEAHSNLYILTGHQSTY
Sequence of NTRK2 (human) (Q16620 whole entry, looked up): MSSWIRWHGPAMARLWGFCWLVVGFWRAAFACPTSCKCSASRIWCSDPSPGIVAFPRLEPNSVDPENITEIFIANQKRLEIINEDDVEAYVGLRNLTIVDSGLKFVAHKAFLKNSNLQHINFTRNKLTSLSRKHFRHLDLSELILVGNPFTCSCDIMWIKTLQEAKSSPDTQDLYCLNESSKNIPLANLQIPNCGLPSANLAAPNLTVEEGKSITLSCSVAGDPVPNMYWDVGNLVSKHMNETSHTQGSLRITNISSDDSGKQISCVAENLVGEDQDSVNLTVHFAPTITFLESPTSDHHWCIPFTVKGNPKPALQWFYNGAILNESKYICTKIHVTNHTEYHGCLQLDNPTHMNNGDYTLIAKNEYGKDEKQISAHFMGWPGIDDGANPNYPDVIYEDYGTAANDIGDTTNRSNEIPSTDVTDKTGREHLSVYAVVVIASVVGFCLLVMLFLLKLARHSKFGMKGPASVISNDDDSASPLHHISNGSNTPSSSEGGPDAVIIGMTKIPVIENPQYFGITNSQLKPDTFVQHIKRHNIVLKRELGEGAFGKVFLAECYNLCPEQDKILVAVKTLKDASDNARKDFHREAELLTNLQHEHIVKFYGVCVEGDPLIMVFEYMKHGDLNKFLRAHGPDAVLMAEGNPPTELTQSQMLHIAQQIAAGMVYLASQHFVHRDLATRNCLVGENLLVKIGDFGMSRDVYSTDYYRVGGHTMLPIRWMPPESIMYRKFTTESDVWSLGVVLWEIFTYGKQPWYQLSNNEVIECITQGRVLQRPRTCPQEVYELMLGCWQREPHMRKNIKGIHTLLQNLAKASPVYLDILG
Sequence of EPHA4 (human) (P54764 whole entry, looked up): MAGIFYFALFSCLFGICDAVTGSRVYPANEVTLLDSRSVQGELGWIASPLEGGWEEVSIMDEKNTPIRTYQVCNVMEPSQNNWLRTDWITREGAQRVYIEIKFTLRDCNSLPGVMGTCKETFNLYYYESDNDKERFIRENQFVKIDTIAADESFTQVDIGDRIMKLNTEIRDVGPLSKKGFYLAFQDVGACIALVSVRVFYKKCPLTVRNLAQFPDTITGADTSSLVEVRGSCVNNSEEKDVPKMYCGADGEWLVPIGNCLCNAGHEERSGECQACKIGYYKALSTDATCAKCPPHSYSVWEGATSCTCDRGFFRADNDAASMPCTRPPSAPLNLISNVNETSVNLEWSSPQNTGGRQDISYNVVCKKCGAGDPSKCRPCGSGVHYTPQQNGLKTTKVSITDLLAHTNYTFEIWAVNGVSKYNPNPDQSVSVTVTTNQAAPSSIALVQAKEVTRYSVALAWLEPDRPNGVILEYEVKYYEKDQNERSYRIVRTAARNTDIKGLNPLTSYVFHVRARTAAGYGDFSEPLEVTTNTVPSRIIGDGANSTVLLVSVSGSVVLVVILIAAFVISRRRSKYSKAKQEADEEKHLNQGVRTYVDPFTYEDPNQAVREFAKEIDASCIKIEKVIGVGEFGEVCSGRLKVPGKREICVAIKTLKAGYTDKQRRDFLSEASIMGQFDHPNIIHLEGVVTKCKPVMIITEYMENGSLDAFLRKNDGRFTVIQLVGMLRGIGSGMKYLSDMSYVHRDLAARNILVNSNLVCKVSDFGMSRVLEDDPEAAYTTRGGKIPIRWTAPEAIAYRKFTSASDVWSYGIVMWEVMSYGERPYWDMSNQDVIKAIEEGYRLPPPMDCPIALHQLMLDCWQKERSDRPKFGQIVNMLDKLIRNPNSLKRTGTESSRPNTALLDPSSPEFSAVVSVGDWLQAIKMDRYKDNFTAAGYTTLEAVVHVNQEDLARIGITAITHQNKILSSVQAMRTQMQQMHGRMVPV
Sequence of MAPK1 (human) (P28482 whole entry, looked up): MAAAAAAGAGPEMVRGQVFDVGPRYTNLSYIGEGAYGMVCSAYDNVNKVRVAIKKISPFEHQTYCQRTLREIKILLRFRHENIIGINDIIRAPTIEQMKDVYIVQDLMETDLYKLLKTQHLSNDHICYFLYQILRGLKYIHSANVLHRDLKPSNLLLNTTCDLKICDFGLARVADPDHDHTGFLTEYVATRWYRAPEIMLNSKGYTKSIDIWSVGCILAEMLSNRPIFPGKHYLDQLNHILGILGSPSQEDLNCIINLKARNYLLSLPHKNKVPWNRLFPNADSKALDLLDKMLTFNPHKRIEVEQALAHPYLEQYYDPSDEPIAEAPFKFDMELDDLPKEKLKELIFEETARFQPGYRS

inhibition (AKT2 (human); compound 0.02 µM): -9% | inhibition (AKT2 (human); compound 0.2 µM): -8.2% | inhibition (BRSK1 (human); compound 0.02 µM): -2.6% | inhibition (BRSK1 (human); compound 0.2 µM): -6% | inhibition (CDK9 (human); compound 0.02 µM): -7.5% | inhibition (CDK9 (human); compound 0.2 µM): -6.7% | inhibition (CSNK2A1 (human); compound 0.02 µM): -2% | inhibition (CSNK2A1 (human); compound 0.2 µM): 0.3% | inhibition (CSNK2A2 (human); compound 0.02 µM): -3.5% | inhibition (CSNK2A2 (human); compound 0.2 µM): 0.9% | inhibition (EPHA4 (human); compound 0.02 µM): -1.7% | inhibition (EPHA4 (human); compound 0.2 µM): 22% | inhibition (EPHB2 (human); compound 0.02 µM): -2.9% | inhibition (EPHB2 (human); compound 0.2 µM): 14.4% | inhibition (FLT1 (human); compound 0.02 µM): 49.3% | inhibition (FLT1 (human); compound 0.2 µM): 99.6% | inhibition (IKBKB (human); compound 0.02 µM): 0.9% | inhibition (IKBKB (human); compound 0.2 µM): 1.4% | inhibition (JAK1 JH1 JH2 (human); compound 0.02 µM): -1.7% | inhibition (JAK1 JH1 JH2 (human); compound 0.2 µM): 3.1% | inhibition (LATS2 (human); compound 0.02 µM): -4.4% | inhibition (LATS2 (human); compound 0.2 µM): 2.8% | inhibition (MAP4K2 (human); compound 0.02 µM): 3.2% | inhibition (MAP4K2 (human); compound 0.2 µM): 11.5% | inhibition (MAPK1 (human); compound 0.02 µM): -3.9% | inhibition (MAPK1 (human); compound 0.2 µM): -4.1% | inhibition (MAPK11 (human); compound 0.02 µM): 10.4% | inhibition (MAPK11 (human); compound 0.2 µM): 62.3% | inhibition (MAPK8 (human); compound 0.02 µM): -2.3% | inhibition (MAPK8 (human); compound 0.2 µM): -2.1% | inhibition (MAPKAPK5 (human); compound 0.02 µM): -7.4% | inhibition (MAPKAPK5 (human); compound 0.2 µM): 1.4% | inhibition (MERTK (human); compound 0.02 µM): -3.5% | inhibition (MERTK (human); compound 0.2 µM): 10.2% | inhibition (MST4 (human); compound 0.02 µM): -5.7% | inhibition (MST4 (human); compound 0.2 µM): 0.1% | inhibition (NIM1 (human); compound 0.02 µM): -3.6% | inhibition (NIM1 (human); compound 0.2 µM): 6.4% | inhibition (NTRK2 (human); compound 0.02 µM): 3.2% | inhibition (NTRK2 (human); compound 0.2 µM): 37.4% | inhibition (NUAK2 (human); compound 0.02 µM): -6% | inhibition (NUAK2 (human); compound 0.2 µM): 2.5% | inhibition (PAK3 (human); compound 0.02 µM): -1.4% | inhibition (PAK3 (human); compound 0.2 µM): 2.1% | inhibition (PAK4 (human); compound 0.02 µM): -8% | inhibition (PAK4 (human); compound 0.2 µM): 4.4% | inhibition (PBK (human); compound 0.02 µM): -6% | inhibition (PBK (human); compound 0.2 µM): -5.2% | inhibition (PHKG2 (human); compound 0.02 µM): -3.1% | inhibition (PHKG2 (human); compound 0.2 µM): -2.3% | inhibition (PIM1 (human); compound 0.02 µM): 1% | inhibition (PIM1 (human); compound 0.2 µM): -3.6% | inhibition (PRKACG (human); compound 0.02 µM): -6.6% | inhibition (PRKACG (human); compound 0.2 µM): -6% | inhibition (PRKCZ (human); compound 0.02 µM): 0% | inhibition (PRKCZ (human); compound 0.2 µM): 11.3% | inhibition (STK24 (human); compound 0.02 µM): -3.9% | inhibition (STK24 (human); compound 0.2 µM): 5.6% | inhibition (TSSK1B (human); compound 0.02 µM): -3.7% | inhibition (TSSK1B (human); compound 0.2 µM): -2.9% | inhibition (ZAP70 (human); compound 0.02 µM): -17.2% | inhibition (ZAP70 (human); compound 0.2 µM): 19.1%
SMILES: CNC(=O)c1cc(Oc2ccc(NC(=O)Nc3ccc(Cl)c(C(F)(F)F)c3)cc2)ccn1
